Test results taken from patent EP4125905B1, “REGIMEN FOR TREATING A NEISSERIA GONORRHOEAE INFECTION WITH GEPOTIDACIN” (GlaxoSmithKline Intellectual Property Development Limited, priority 2020, dated 2021).
≈ marks a conversion by molar mass, not a printed value. Read-outs that look alike come from different tables or passages of the source.

Key:
[1] = test system: urogenital NG; conditions: cited from earlier work
[2] = Single-dose saliva, urine and plasma PK of oral gepotidacin in hepatic impairment and matched controls; type: in vivo, human; conditions: for urinary exposure (AUC[0-48]) relative to matched healthy controls: 1500 mg orally
Protocol: Gepotidacin exposures were assessed in plasma and other matrices, such as urine, saliva, epithelial lining fluid (ELF), Alveolar Macrophages (AM), cervix, rectum and pharynx, as follows: • 1. Plasma, Epithelial Lining Fluid (ELF) and Alveolar Macrophage (AM) samples: A study to evaluate plasma and pulmonary pharmacokinetics (PK) following intravenous administration of gepotidacin in healthy adult subjects was conducted (see M Hossain, EF Dumont. Population Pharmacokinetic Modeling of Plasma and Epithelial Lining Fluid Data for a Novel Antimicrobial Compound. 54th Annual Interscience Conference on Antimicrobial Agents and Chemotherapy Meeting, 5-9 September 2014, Washington, D.C., USA). • 2. Saliva, Urine and plasma samples: • a. A single-dose study to assess the PK of oral gepotidacin in male and female adult participants with varying degrees of hepatic impairment and in matched control participants with normal hepatic function (J. Hands et al. Pharmacokinetics of Gepotidacin in Subjects with Hepatic Impairment. ID Week, 2-6 October 2019, Washington DC, USA) • b. A single-dose study to assess the PK of gepotidacin in adult subjects with varying degrees of renal impairment and in matched control subjects with normal renal function • 3. Urine, plasma, cervix, rectum and pharynx swabs: In a Phase 2a, single-center, single-arm, open-label study in the Unites States from July 2018 to January 2019 (see Overcash et al., Open Forum Infectious Diseases, Volume 6, Issue Supplement 2, October 2019, Page S539, https://doi.org/10.1093/ofid/ofz360.1343), a total of 22 female participants with uncomplicated Urinary Tract Infection (uUTI) were enrolled and evaluated for pharmacokinetics (PK), safety, and clinical efficacy. […] Gepotidacin exposures in urine, cervix, rectum and pharynx were assessed.
(§1) Saliva, Urine and Plasma concentrations were determined after administration of gepotidacin 750 mg IV (healthy and renally impaired subjects) and 1500 mg orally (healthy and hepatically impaired subjects, as well as uUTI patients). […]

[3] = Single-dose saliva, urine and plasma PK of gepotidacin in renal impairment and matched controls; type: in vivo, human
Protocol: (§2) Gepotidacin exposures were assessed in plasma and other matrices, such as urine, saliva, epithelial lining fluid (ELF), Alveolar Macrophages (AM), cervix, rectum and pharynx, as follows: • 1. Plasma, Epithelial Lining Fluid (ELF) and Alveolar Macrophage (AM) samples: A study to evaluate plasma and pulmonary pharmacokinetics (PK) following intravenous administration of gepotidacin in healthy adult subjects was conducted (see M Hossain, EF Dumont. Population Pharmacokinetic Modeling of Plasma and Epithelial Lining Fluid Data for a Novel Antimicrobial Compound. 54th Annual Interscience Conference on Antimicrobial Agents and Chemotherapy Meeting, 5-9 September 2014, Washington, D.C., USA). • 2. Saliva, Urine and plasma samples: • a. A single-dose study to assess the PK of oral gepotidacin in male and female adult participants with varying degrees of hepatic impairment and in matched control participants with normal hepatic function (J. Hands et al. Pharmacokinetics of Gepotidacin in Subjects with Hepatic Impairment. ID Week, 2-6 October 2019, Washington DC, USA) • b. A single-dose study to assess the PK of gepotidacin in adult subjects with varying degrees of renal impairment and in matched control subjects with normal renal function • 3. Urine, plasma, cervix, rectum and pharynx swabs: In a Phase 2a, single-center, single-arm, open-label study in the Unites States from July 2018 to January 2019 (see Overcash et al., Open Forum Infectious Diseases, Volume 6, Issue Supplement 2, October 2019, Page S539, https://doi.org/10.1093/ofid/ofz360.1343), a total of 22 female participants with uncomplicated Urinary Tract Infection (uUTI) were enrolled and evaluated for pharmacokinetics (PK), safety, and clinical efficacy. Participants were confined to the clinic from baseline (Days -1 to 1 predose) through on-therapy (Days 1 to 5) and returned as outpatients for test-of-cure (TOC; Days 10 to 13) and follow-up (Day 28t3). Participants received oral gepotidacin 1,500 mg twice daily (BID) for 5 days. […] The majority of participants were white, age ranged from 19 to 60 years, and body mass index ranged from 20.9 to 37.9 kg/m^2. The number of past uUTI episodes ranged from 0 to 10 over the past 12 months across participants; the majority of participants reported ≤2 episodes. The mean total clinical symptom score at baseline was 7.9 (range: 4 to 12). All participants reported frequency and urgency, and all but 1 participant (5%) reported dysuria. Gepotidacin exposures in urine, cervix, rectum and pharynx were assessed.
as §1

[4] = Plasma and pulmonary (ELF, AM) pharmacokinetics after intravenous gepotidacin in healthy adult subjects; type: in vivo, human
Protocol: as §2
Plasma, Epithelial Lining Fluid (ELF) and Alveolar Macrophage (AM) PK were assessed following a single IV infusion of 1000 mg gepotidacin over 2 hours. […] Concentrations in AM and ELF changed in a similar manner as in plasma over the 12-hour sampling period.

[5] = test system: NG isolate; type: cell-based, Neisseria gonorrhoeae
Protocol: The results were discussed in VanScoy BD et al., A Hollow-Fiber Infection Model to Evaluate the Prevention of On- Therapy Resistance of Neisseria gonorrhoeae to Gepotidacin.
10 mL of an initial bacterial density of 10^6 colony forming units (CFU)/mL was inoculated into the hollow-fiber cartridge (Fibercell Systems, Frederick, MD), utilizing modified FB medium.
Samples were collected for observation of simulated pharmacokinetic profiles and enumeration of bacterial burden over the study duration. All bacterial samples were plated on drug-free and agar supplemented with 2 x the agar MIC value of each respective challenge compound.

[6] = test system: NG clinical isolate; test: MIC determination in fastidious broth (FB) medium modified to lack agarose; type: cell-based; conditions: Neisseria gonorrhoeae, read-out: gepotidacin broth MIC
Protocol: The NG clinical isolate evaluated was known to be ciprofloxacin-resistant (minimum inhibitory concentration [MIC]= 2 mg/L), susceptible to ceftriaxone (MIC = 0.004 mg/L), and with a gepotidacin agar/broth MIC of 1/0.5 mg/L. The isolate was collected during the Phase 2 clinical study mentioned above, and contained the mutation, ParC D86N.
In order to evaluate the MIC of each challenge compound under the liquid conditions utilized in the HFIM, MIC values were determined using fastidious broth (FB) medium modified to lack agarose.

[7] = test system: urogenital NG isolates; conditions: cited from earlier work
[8] = Safety and pharmacokinetics in healthy adults and adolescents; type: in vivo, human
Protocol: Healthy adults and adolescents within the age ranges of 19-64 and 12-17 years old, respectively, participated in the study.
In Part 1 of the study, gepotidacin was administered with food to healthy adults (≥ 18 years) in period 1 (1500 mg oral single dose), followed by period 2 (3000 mg x 2 oral doses Q12h) and period 3 (3000 mg x 2 oral doses Q6h).
In Part 2 of the study, gepotidacin was administered with food to adolescents (12 to < 18 years) at the same dose regimens as period 1 (1500 mg oral single dose) and period 3 (3000 mg x 2 oral doses Q6h).

[9] = test system: NG clinical isolate; test: microbe, parasite or virus in culture; type: cell-based; conditions: Neisseria gonorrhoeae
[10] = Phase 2a study in female participants with uUTI: urine, plasma, cervical, rectal and pharyngeal swab PK and safety; type: in vivo, human
Protocol: as §2
Plasma, cervix, rectum and pharynx swabs were collected after administration of gepotidacin 1500 mg BID to uUTI patients. […] TABLE 1 Summary of gepotidacin cervical, rectal, pharyngeal, and free plasma concentration time data (µg/ml) (pharmacokinetic population)

[11] = single IV infusion of 1000 mg over 2 hours, AM versus ELF
[12] = Period 1, 1500 mg oral single dose
[13] = 1500 mg BID, Day 4, 2 hours postdose

SMILES: O=c1ccc2ncc(=O)n3c2n1C[C@H]3CN1CCC(NCc2cc3c(cn2)OCCC3)CC1 [gepotidacin, (2R)-2-({4-[(3,4-Dihydro-2H-pyrano[2,3-c]pyridin-6-ylmethyl)amino]-1-piperidinyl}methyl)-1,2-dihydro-3H,8H-2a,5,8a-triazaacenaphthylene-3,8-dione]
- participants who failed therapy at the urogenital body site ([1]; Phase II study, total): 3
- microbiological successes (bacterial eradication) ([1]; of the 8 participants with D86N-positive baseline urogenital NG isolates): 5
- efficacy (bacterial eradication) against urogenital infection caused by NG ([1]; single oral dose 1.5g (1500 mg)): ≥ 95%
- efficacy (bacterial eradication) against urogenital infection caused by NG ([1]; single oral dose 3g (3000 mg)): ≥ 95%
- Kp ([2]; human, saliva / unbound plasma, stated across the renal and hepatic impairment studies, read-out: ratio of saliva AUC to unbound plasma AUC (RAUC)): ≥ 0.75
- urinary exposure (AUC[0-48]) relative to matched healthy controls ([2]; moderate hepatic impairment): approximately 3.2 fold
- urinary exposure (AUC[0-48]) relative to matched healthy controls ([2]; severe hepatic impairment): ~3.9 fold
- gepotidacin dose excreted in the urine ([3]; ESRD subjects on hemodialysis): Less than 2%
- gepotidacin dose removed in the urine (fe%) ([3]; End-Stage Renal Disease (ESRD) subjects not on hemodialysis): 7.9%
- gepotidacin dose removed in the urine (fe%) ([3]; moderate renal impairment subjects): 22.1%
- gepotidacin dose removed in the urine (fe%) ([3]; normal renal function subjects): 37.4%
- Kp ([4]; human, alveolar macrophages / free plasma, single IV infusion of 1000 mg over 2 hours, read-out: AUC(0-12) ratio of AM to free plasma): 178
- Kp ([4]; human, epithelial lining fluid / free plasma, single IV infusion of 1000 mg over 2 hours, read-out: AUC(0-12) ratio of ELF to free plasma): 1.84
- fraction unbound ([4]; human, plasma, read-out: gepotidacin free fraction): 0.67
- AM exposure AUC(0-12), higher than in ELF [4, 11]: ~97 fold
- AM exposure Cmax, higher than in ELF [4, 11]: approximately 120 fold
- doses preventing amplification of resistance within the system ([5]; gepotidacin-resistant subpopulation on Day 7): ≥ 4.5 g
- total daily doses that prevented resistance amplification ([5]; including 2 doses of 3g administered 8 or 12 hours apart): ≥ 4500 mg
- doses sterilizing the system ([5]; over the seven-day period, simulated single oral doses 0.75 to 12 g): ≥ 4.5 g
- MIC [6]: 0.5 µg/mL (≈ 1.11 µM)
- baseline gepotidacin MIC ([7]; 2 microbiological successes with D86N-positive baseline organisms): 1 µg/mL
- TOC gepotidacin MICs ([7]; 2 posttreatment isolates that had become resistant): ≥ 32 µg/mL
- tolerability ([8]; 1500 mg oral single dose, adults and adolescents, few mild GI AEs): generally well tolerated
- maximum concentration (Cmax), adolescents compared to adults [8, 12]: similar
- median area under the curve (AUC), adolescents compared to adults [8, 12]: slightly higher
- AUC following the second dose, adolescents versus adults ([8]; Period 3, Q6h regimen): higher
- Cmax following the second dose, adolescents versus adults ([8]; Period 3, Q6h regimen): similar
- subjects above the value of potential clinical concern, observed ([8]; adolescents Q6h, 3000 mg x 2 oral doses): 58%
- subjects above the value of potential clinical concern, observed ([8]; adults Q6h, 3000 mg x 2 oral doses): 46%
- subjects above the value of potential clinical concern, observed ([8]; adults Q12h, 3000 mg x 2 oral doses): 15%
- AUC0-t exposures following the first dose, Q12 versus Q6h ([8]; adults, 3000 mg dose level): similar
- accumulation ratios, Q6h as compared to Q12h ([8]; adults, 3000 mg x 2 oral doses): Higher
- safety issues related to QT or AchE-I ([8]; in vivo): No observed safety issues
- MIC ([9]; read-out: gepotidacin MIC): 1 µg/mL (≈ 2.23 µM)
- MIC ([9]; read-out: gepotidacin agar MIC): 1 µg/mL (≈ 2.23 µM)
- Cervical concentration, Maximum [10, 13]: 4.25 µg/mL
- Cervical concentration, Mean [10, 13]: 1.03 µg/mL
- Cervical concentration, Minimum [10, 13]: 0.0190 µg/mL
- Free plasma concentration, Maximum [10, 13]: 7500 ng/mL
- Free plasma concentration, Mean [10, 13]: 3940 ng/mL
- Free plasma concentration, Minimum [10, 13]: 938 ng/mL
- Pharyngeal concentration, Maximum [10, 13]: 0.527 µg/mL
- Pharyngeal concentration, Mean [10, 13]: 0.140 µg/mL
- Pharyngeal concentration, Minimum [10, 13]: 0.0118 µg/mL
- Rectal concentration, Maximum [10, 13]: 90.90 µg/mL
- Rectal concentration, Mean [10, 13]: 12.3 µg/mL
- Rectal concentration, Minimum [10, 13]: 0.0989 µg/mL
- Cervical concentration, Maximum ([10]; 1500 mg BID, Day 4, Predose): 5.94 µg/mL
- Cervical concentration, Mean ([10]; 1500 mg BID, Day 4, Predose): 1.30 µg/mL
- Cervical concentration, Minimum ([10]; 1500 mg BID, Day 4, Predose): 0.0601 µg/mL
- Free plasma concentration, Maximum ([10]; 1500 mg BID, Day 4, Predose): 1330 ng/mL
- Free plasma concentration, Mean ([10]; 1500 mg BID, Day 4, Predose): 618 ng/mL
- Free plasma concentration, Minimum ([10]; 1500 mg BID, Day 4, Predose): 308 ng/mL
- Pharyngeal concentration, Maximum ([10]; 1500 mg BID, Day 4, Predose): 0.165 µg/mL
- Pharyngeal concentration, Mean ([10]; 1500 mg BID, Day 4, Predose): 0.0330 µg/mL
- Pharyngeal concentration, Minimum ([10]; 1500 mg BID, Day 4, Predose): 0.00275 µg/mL
- Rectal concentration, Maximum ([10]; 1500 mg BID, Day 4, Predose): 36.30 µg/mL
- Rectal concentration, Mean ([10]; 1500 mg BID, Day 4, Predose): 6.04 µg/mL
- Rectal concentration, Minimum ([10]; 1500 mg BID, Day 4, Predose): 0.0678 µg/mL
- discontinuations due to adverse events (AEs) ([10]; oral 1,500 mg BID for 5 days, uUTI participants): no discontinuations due to adverse events
- urine Ctau exposures ([10]; uUTI patients, 1500 mg BID, from Day 3 onwards): 322 to 352 µg/mL
- minimum gepotidacin urine concentrations ([10]; uUTI patients, remained above MIC over the 12-hour dosing interval): > 4 µg/mL

SMILES: CO/N=C(\C(=O)N[C@@H]1C(=O)N2C(C(=O)O)=C(CSc3nc(=O)c(=O)[nH]n3C)CS[C@H]12)c1csc(N)n1 [ceftriaxone, reference compound]
- performance of controls in the hollow fibre infection model ([5]; isolate resistant to ciprofloxacin and susceptible to ceftriaxone, simulated 0.5 g oral ciprofloxacin, 0.25 g IM ceftriaxone): performed as expected
- MIC ([9]; read-out: minimum inhibitory concentration [MIC]): 0.004 µg/mL (≈ 0.00721 µM)
